# Experimental data: ChEMBL document CHEMBL4725284, “Junceellolide B, a novel inhibitor of Hepatitis B virus” (Bioorg Med Chem, 2020)
# Active and inactive are the calls of the source. No cut-off for these calls is given here.
# Experiments:
# Hepatitis B virus [1] = test: Antiviral activity against HBV infected in human HepAD38 cells assessed as inhibition of viral DNA at 10 uM incubated for 4 days by SYBR green dye based RT-PCR analysis relative to control; type: functional; conditions: HePAD38, 96 h, time 4 day
# Hepatitis B virus [2] = test: Antiviral activity against HBV infected in human HepAD38 cells assessed as inhibition of viral DNA incubated for 4 days by SYBR green dye based RT-PCR analysis; type: functional, organism-based; conditions: HePAD38, 96 h
# [3] = Cytotoxicity against human HePAD38 cells assessed as cell viability incubated for 72 hrs by MTT assay; type: cell-based
# [4] = Cytotoxicity against human HepG2 cells assessed as cell viability incubated for 72 hrs by MTT assay; type: cell-based
# Hepatitis B virus [5] = test: Antiviral activity against HBV infected in doxycycline-induced human HepG2-NTCP cells assessed as reduction in HBeAg secretion in supernatant measured from day 2 to 8 post treatment by time resolved fluoroimmunoassay; type: functional, organism-based; conditions: dose microM 2.5-10, time day 2-8
# Hepatitis B virus [6] = test: Antiviral activity against HBV infected in doxycycline-induced human HepG2-NTCP cells assessed as reduction in HBsAg secretion in supernatant measured from day 2 to 8 post treatment by time resolved fluoroimmunoassay; type: functional, organism-based; conditions: dose microM 2.5-10, time day 2-8
# Hepatitis B virus [7] = test: Antiviral activity against HBV infected human HepAD38 cells assessed as reduction in HBV DNA levels preincubated with compound for 4 days measured after 4 days by RT-PCR analysis; type: functional, organism-based
# Hepatitis B virus [8] = test: Antiviral activity against HBV infected human HepAD38 cells assessed as reduction in HBeAg secretion preincubated with compound for 4 days measured after 4 days by […] analysis; type: functional, organism-based
# Hepatitis B virus [9] = test: Antiviral activity against HBV infected human HepAD38 cells assessed as reduction in HBV RNA levels preincubated with compound for 4 days measured after 4 days by RT-PCR analysis; type: functional, organism-based
# Hepatitis B virus [10] = test: Antiviral activity against HBV infected human HepAD38 cells assessed as reduction in HBV cccDNA levels pretreated with tet for 2 days measured after 8 days post treatment with compound by rolling-cycle amplification; type: functional, organism-based; conditions: time 10.0 day
# Hepatitis B virus [11] = test: Antiviral activity against HBV infected human HepAD38 cells assessed as decrease in HBV cccDNA levels pretreated with tet for 2 days measured after 8 days post treatment with compound by southern blot analysis; type: functional, organism-based; conditions: time 10.0 day
# Hepatitis B virus [12] = test: Antiviral activity against HBV infected human HepAD38 cells assessed as decrease in DP-rcDNA levels pretreated with tet for 2 days measured after 8 days post treatment with compound by southern blot analysis; type: functional, organism-based; conditions: time 10.0 day
# Hepatitis B virus [13] = test: Antiviral activity against HBV infected human HepAD38 cells assessed as HBV cccDNA degradation in presence of tet and LAM at 10 uM obtained up to 8 days post treatment by rolling cycle amplification; type: functional, organism-based; conditions: time day <=8
# Hepatitis B virus [14] = test: Antiviral activity against HBV infected human HepAD38 cells assessed as inhibition of total HBV RNA at 10 uM in absence of tet followed by treating with compound after 24 hrs measured after 4 days by RT-qPCR analysis; type: functional, organism-based; conditions: time 4.0 day
# Hepatitis B virus [15] = test: Antiviral activity against HBV infected human HepAD38 cells assessed as inhibition of precRNA at 10 uM in absence of tet followed by treating with compound after 24 hrs measured after 4 days by RT-qPCR analysis; type: functional, organism-based; conditions: time 4.0 day
# Hepatitis B virus [16] = test: Antiviral activity against HBV infected human HepAD38 cells assessed as inhibition of pgRNA at 10 uM in absence of tet followed by treating with compound after 24 hrs measured after 4 days by RT-qPCR analysis; type: functional, organism-based; conditions: time 4.0 day
# Hepatitis B virus [17] = test: Antiviral activity against HBV infected human HepAD38 cells assessed as inhibition of 3.5 kb RNA at 10 uM in absence of tet followed by treating with compound after 24 hrs measured after 4 days by northern blot analysis; type: functional, organism-based; conditions: time 4.0 day
# Hepatitis B virus [18] = test: Antiviral activity against HBV infected human HepAD38 cells assessed as decrease in HBV core proteins measured after 4 days by western blot analysis; type: functional, organism-based; conditions: dose microM 1.25-10, time 4.0 day
# Hepatitis B virus [19] = test: Antiviral activity against HBV infected human HepAD38 cells assessed as decrease in reverse-transcripted ssDNA treated with tet and LAM followed by addition of compound by southern blot analysis; type: functional, organism-based; conditions: dose microM 1.25-10, time 4.0 day
# Hepatitis B virus [20] = test: Antiviral activity against HBV infected human HepAD38 cells assessed as decrease in reverse-transcripted rcDNA treated with tet and LAM followed by addition of compound by southern blot analysis; type: functional, organism-based; conditions: dose microM 1.25-10, time 4.0 day
# Hepatitis B virus [21] = test: Antiviral activity against HBV infected human HepAD38 cells assessed as degradation of HBV RNA; type: functional, organism-based
# Hepatitis B virus [22] = test: Antiviral activity against HBV infected in human HuH7 cells transfected with luciferase reporter plasmid assessed as repression of HBV basal core promoter at 0.25 to 10 uM incubated for 48 hrs by luciferase assay; type: functional, organism-based; conditions: Huh-7, dose microM 0.25-10, time 48.0 hrs
# Hepatitis B virus [23] = test: Antiviral activity against HBV infected in human HuH7 cells transfected with luciferase reporter plasmid assessed as repression of HBV enhancer I at 0.25 to 10 uM incubated for 48 hrs by luciferase assay; type: functional, organism-based; conditions: Huh-7, dose microM 0.25-10, time 48.0 hrs
# Hepatitis B virus [24] = test: Antiviral activity against HBV infected in human HuH7 cells assessed as reduction in the expression of viral mRNA at 10 uM incubated for 4 days by FPKM analysis; type: functional, organism-based; conditions: Huh-7, time 4.0 day
# [25] = Downregulation of ZBED6 in HBV infected human HepAD38 cells assessed as inhibition rate at 10 uM in absence of tet incubated with compound for 4 days followed by RNA extraction with trizol reagent measured by qRT-PCR analysis relative to control; type: functional; conditions: Hepatitis B virus, HePAD38, 96 h, time 4 day
# [26] = Downregulation of ZBTB7B in HBV infected human HepAD38 cells assessed as inhibitory rate at 10 uM in absence of tet incubated with compound for 4 days followed by RNA extraction with trizol reagent and measured by qRT-PCR analysis relative to control; type: functional; conditions: Hepatitis B virus, HePAD38, 96 h, time 4 day
structure (smiles),measurement,setting,value
C=C1/C=C/[C@H](OC(=O)CC)[C@@]2(C)[C@@H](OC(C)=O)CC[C@]3(CO3)[C@@H]2[C@H](OC(C)=O)[C@]2(O)[C@@H](C)C(=O)O[C@H]2[C@H]1Cl,inhibition at 10 µM,Hepatitis B virus [1],75%
same,EC50,Hepatitis B virus [2],0.81 µM
same,CC50 at 72 h,[3],> 100 µM
same,CC50 at 72 h,[4],> 100 µM
C=C1CC[C@H](OC(C)=O)[C@]2(C)[C@@H](OC(C)=O)/C=C/[C@]3(CO3)[C@H](Cl)[C@@H]3OC(=O)[C@H](C)[C@@]3(O)[C@@H](OC(C)=O)[C@@H]12,inhibition at 10 µM,Hepatitis B virus [1],0%
same,CC50 at 72 h,[3],> 100 µM
same,CC50 at 72 h,[4],> 100 µM
C=C1C[C@H](OC(C)=O)[C@H](OC(C)=O)[C@@]2(C)[C@H]1[C@H](OC(C)=O)[C@@]13O[C@@H](C(=C)[C@H](Cl)[C@@H]1OC(=O)[C@@H]3C)[C@@H](O)[C@@H]2OC(C)=O,inhibition at 10 µM,Hepatitis B virus [1],0%
same,CC50 at 72 h,[3],> 100 µM
same,CC50 at 72 h,[4],> 100 µM
C=C1[C@H](OC(C)=O)C[C@H](OC(=O)CC)[C@@]2(C)[C@@H](OC(C)=O)CC[C@]3(CO3)[C@@H]2[C@H](OC(C)=O)[C@]2(O)[C@@H](C)C(=O)O[C@H]2[C@H]1Cl,inhibition at 10 µM,Hepatitis B virus [1],0%
same,CC50 at 72 h,[3],> 100 µM
same,CC50 at 72 h,[4],> 100 µM
CC(=O)OCC(=O)O[C@H]1/C=C\C(COC(C)=O)=C/[C@@H]2OC(=O)[C@H](C)[C@@]2(O)[C@@H](OC(C)=O)[C@H]2[C@]3(CC[C@H](OC(C)=O)[C@]12C)CO3,inhibition at 10 µM,Hepatitis B virus [1],0%
same,CC50 at 72 h,[3],> 100 µM
same,CC50 at 72 h,[4],> 100 µM
C=C1CC[C@H](OC(C)=O)[C@]2(C)[C@@H](OC(C)=O)/C=C/C(=C)[C@H](Cl)[C@@H]3OC(=O)[C@H](C)[C@@]3(O)[C@@H](OC(C)=O)[C@@H]12,inhibition at 10 µM,Hepatitis B virus [1],64%
same,EC50,Hepatitis B virus [2],0.83 µM
same,Activity,Hepatitis B virus [5],Dose-dependent effect
same,Activity,Hepatitis B virus [6],Dose-dependent effect
same,EC50,Hepatitis B virus [7],0.83 µM
same,EC50,Hepatitis B virus [8],7.75 µM
same,EC50,Hepatitis B virus [9],2.87 µM
same,CC50 at 72 h,[3],> 100 µM
same,Activity,Hepatitis B virus [10],Active
same,Activity,Hepatitis B virus [11],Active
same,Activity,Hepatitis B virus [12],Active
same,Activity,Hepatitis B virus [13],inactive
same,inhibition,Hepatitis B virus [14],Active
same,inhibition,Hepatitis B virus [15],Active
same,inhibition,Hepatitis B virus [16],Active
same,inhibition,Hepatitis B virus [17],Active
same,Activity,Hepatitis B virus [18],Dose-dependent effect
same,Activity,Hepatitis B virus [19],Dose-dependent effect
same,Activity,Hepatitis B virus [20],Dose-dependent effect
same,Activity,Hepatitis B virus [21],inactive
same,Activity,Hepatitis B virus [22],Active
same,Activity,Hepatitis B virus [23],Active
same,Activity,Hepatitis B virus [24],Active
same,inhibition at 10 µM,[25],28%
same,inhibition at 10 µM,[26],32%
same,CC50 at 72 h,[4],> 100 µM
C=C1CC[C@H](OC(C)=O)[C@]2(C)[C@@H](OC(C)=O)/C=C/C(COC(C)=O)=C\[C@@H]3OC(=O)[C@H](C)[C@@]3(O)[C@@H](OC(C)=O)[C@@H]12,inhibition at 10 µM,Hepatitis B virus [1],0%
same,CC50 at 72 h,[3],> 100 µM
same,CC50 at 72 h,[4],> 100 µM
CC(=O)OC/C1=C/[C@@H]2OC(=O)[C@H](C)[C@@]2(O)[C@@H](OC(C)=O)[C@H]2[C@]3(CC[C@H](OC(C)=O)[C@]2(C)[C@@H](OC(C)=O)C[C@H]1OC(C)=O)CO3,inhibition at 10 µM,Hepatitis B virus [1],0%
same,CC50 at 72 h,[3],> 100 µM
same,CC50 at 72 h,[4],> 100 µM
C=C1CC[C@H](OC(C)=O)[C@@]2(C)[C@H]1[C@H](OC(C)=O)[C@@]13O[C@@H](C(=C)[C@H](Cl)[C@@H]1OC(=O)[C@@H]3C)[C@@H](OC(C)=O)[C@@H]2OC(C)=O,inhibition at 10 µM,Hepatitis B virus [1],27%
same,CC50 at 72 h,[3],> 100 µM
same,CC50 at 72 h,[4],> 100 µM
C=C1CC[C@H](OC(C)=O)[C@]2(C)[C@@H](OC(C)=O)C[C@@H](OC(C)=O)/C(COC(C)=O)=C\[C@@H]3OC(=O)[C@H](C)[C@@]3(O)[C@@H](OC(C)=O)[C@@H]12,inhibition at 10 µM,Hepatitis B virus [1],0%
same,CC50 at 72 h,[3],> 100 µM
same,CC50 at 72 h,[4],> 100 µM
C=C1CC[C@H](OC(C)=O)[C@]2(C)[C@@H](OC(C)=O)C[C@@H](OC(C)=O)/C(CO)=C\[C@@H]3OC(=O)[C@H](C)[C@@]3(O)[C@@H](OC(C)=O)[C@@H]12,inhibition at 10 µM,Hepatitis B virus [1],0%
same,CC50 at 72 h,[3],> 100 µM
same,CC50 at 72 h,[4],> 100 µM
C=C1CC[C@H](OC(C)=O)[C@]2(C)[C@@H](OC(C)=O)C[C@@]3(O)O[C@]4([C@@H](C)C(=O)O[C@H]4[C@@H](Cl)C3=C)[C@@H](OC(C)=O)[C@@H]12,inhibition at 10 µM,Hepatitis B virus [1],40%
same,CC50 at 72 h,[3],> 100 µM
same,CC50 at 72 h,[4],> 100 µM
C=C1CC[C@H](OC(C)=O)[C@]2(C)[C@@H](OC(C)=O)C[C@@H](O)/C(C)=C\[C@@H]3OC(=O)[C@H](C)[C@@]3(O)[C@@H](OC(C)=O)[C@@H]12,inhibition at 10 µM,Hepatitis B virus [1],12%
same,CC50 at 72 h,[3],> 100 µM
same,CC50 at 72 h,[4],> 100 µM
"CC(=O)O[C@H]1CC[C@]2(CO2)[C@@H]2[C@H](OC(C)=O)[C@@]3(O)[C@H](/C=C(/C)[C@H](OC(C)=O)C[C@H](OC(C)=O)[C@@]12C)OC(=O)[C@@H]3C [11ALPHA,20ALPHA-EPOXYJUNCEELLOLIDE]",inhibition at 10 µM,Hepatitis B virus [1],3%
same,CC50 at 72 h,[3],> 100 µM
same,CC50 at 72 h,[4],> 100 µM
CC(=O)O[C@H]1CC[C@]2(CO2)[C@@H]2[C@H](OC(C)=O)[C@@]3(O)[C@H](/C=C(CCl)\C=C/[C@H](OC(=O)COC(=O)CC(C)C)[C@@]12C)OC(=O)[C@@H]3C,inhibition at 10 µM,Hepatitis B virus [1],0%
same,CC50 at 72 h,[3],> 100 µM
same,CC50 at 72 h,[4],> 100 µM
C=C1/C=C/[C@H](OC(C)=O)[C@@]2(C)[C@@H](OC(C)=O)CC[C@]3(CO3)[C@@H]2[C@H](OC(C)=O)[C@]2(O)[C@@H](C)C(=O)O[C@H]2[C@H]1Cl [JUNCEELLOLIDE C],inhibition at 10 µM,Hepatitis B virus [1],63%
same,EC50,Hepatitis B virus [2],5.19 µM
same,CC50 at 72 h,[3],> 100 µM
same,CC50 at 72 h,[4],> 100 µM
